Data as given in PMC4057605 (Journal of immunology (Baltimore, Md. : 1950), 2013).

Tests used:
HLA-B*44:02 monochain [1] = tested on: HLA-B*44:02 monochain; design: species or system mouse (HLA-B*44:02 monochain transgenic, H-2 class I null); details: mouse, in vivo, sc
HLA-B*44:02 monochain [2] = tested on: HLA-B*44:02 monochain; design: species or system mouse (HLA-B*44:02 monochain transgenic, H-2 class I null); details: mouse, in vivo
HLA-A*01:03 monochain [3] = details: mouse, in vivo, sc
HLA-A*01:03 monochain [4] = details: mouse, in vivo
HLA-B*27:05 monochain [5] = tested on: HLA-B*27:05 monochain; design: species or system mouse (HLA-B*27:05 monochain transgenic, H-2 class I null); details: mouse, in vivo, sc
HLA-B*27:05 monochain [6] = tested on: HLA-B*27:05 monochain; design: species or system mouse (HLA-B*27:05 monochain transgenic, H-2 class I null); details: mouse, in vivo
HLA-B*08:01 monochain [7] = tested on: HLA-B*08:01 monochain; design: species or system mouse (HLA-B*08:01 monochain transgenic, H-2 class I null); details: mouse, in vivo, sc
HLA-B*08:01 monochain [8] = tested on: HLA-B*08:01 monochain; design: species or system mouse (HLA-B*08:01 monochain transgenic, H-2 class I null); details: mouse, in vivo

AENGWGFYF was tested, and the “CD8+ T cell IFN-γ responses after peptide immunization” value (HLA-B*44:02 monochain [1]) was 60/41/29/12/9 Spots/10^6 Cells and the “CD8+ T cell IFN-γ responses after DNA immunization” value (HLA-B*44:02 monochain [2]) was 91/63/46/0 Spots/10^6 Cells.
EADPTGHSY was tested, and the “CD8+ T cell IFN-γ responses after peptide immunization” value (HLA-A*01:03 monochain [3]) was 287/212/123/27 Spots/10^6 Cells and the “CD8+ T cell IFN-γ responses after DNA immunization” value (HLA-A*01:03 monochain [4]) was 118/91/86/38 Spots/10^6 Cells.
In the case of EENLLDFVRF, the “CD8+ T cell IFN-γ responses after peptide immunization” value (HLA-B*44:02 monochain [1]) is reported as 54/28/27/20/0 Spots/10^6 Cells and the “CD8+ T cell IFN-γ responses after DNA immunization” value (HLA-B*44:02 monochain [2]) is reported as 134/87/0/0 Spots/10^6 Cells.
FEDLRVLSF was tested, and the “CD8+ T cell IFN-γ responses after peptide immunization” value (HLA-B*44:02 monochain [1]) was 167/61/30/17/8 Spots/10^6 Cells and the “CD8+ T cell IFN-γ responses after DNA immunization” value (HLA-B*44:02 monochain [2]) was 66/44/0/0 Spots/10^6 Cells.
In the case of LRGKWQRRYR, the “CD8+ T cell IFN-γ responses after peptide immunization” value (HLA-B*27:05 monochain [5]) is reported as 113/61/54/23 Spots/10^6 Cells and the “CD8+ T cell IFN-γ responses after DNA immunization” value (HLA-B*27:05 monochain [6]) is reported as 221/213/189/13 Spots/10^6 Cells.
For SRYWAIRTR, the “CD8+ T cell IFN-γ responses after peptide immunization” value (HLA-B*27:05 monochain [5]) was 567/459/110/0 Spots/10^6 Cells and the “CD8+ T cell IFN-γ responses after DNA immunization” value (HLA-B*27:05 monochain [6]) was 917/890/411/241 Spots/10^6 Cells.
In the case of VSDGGPNLY, the “CD8+ T cell IFN-γ responses after peptide immunization” value (HLA-A*01:03 monochain [3]) is reported as 201/134/71/59 Spots/10^6 Cells and the “CD8+ T cell IFN-γ responses after DNA immunization” value (HLA-A*01:03 monochain [4]) is reported as 265/169/105 Spots/10^6 Cells.
In the case of WLKIKRDYL, the “CD8+ T cell IFN-γ responses after peptide immunization” value (HLA-B*08:01 monochain [7]) is reported as 524/103/97/74/64/0 Spots/10^6 Cells and the “CD8+ T cell IFN-γ responses after DNA immunization” value (HLA-B*08:01 monochain [8]) is reported as 327/46/39/21/21/11 Spots/10^6 Cells.
